Measured values reported in article PMC8282797, “Strictly regulated agonist-dependent activation of AMPA-R is the key characteristic of TAK-653 for robust synaptic responses and cognitive improvement” (Scientific Reports, 2021).
“Also recorded” adds a separate entry of the source. Where two headings read alike, the source gives them in different places.

Experiments:
AMPA-R = assay: Whole-cell patch clamp recording in acute PFC slices (AMPA-R-mediated EPSPs); assay type: cell-based, rat; parameters: key to Synaptic EPSP response: -: No effect or slight effect; +: Potent; ++: Very potent; settings: for Synaptic EPSP response: summary grade; for Spike number and EPSP duration after switch from LY451646 (30 μM): 10 μM
Experimental: Coronal PFC slices were prepared from male Sprague–Dawley rats (10- to 14-day-old). The slices including layer V PFC pyramidal neurons were perfused at a flow rate of 1–2 ml/min with recording aCSF containing the following: 124 mM NaCl, 5 mM KCl, 1.2 mM NaH2PO4, 1.5 mM MgCl2, 2.5 mM CaCl2, 10 mM glucose, 24 mM NaHCO3 bubbled with carbogen (95% O2; 5% CO2). Current clamp recordings at holding potential of approximately − 65 mV with constant current were carried out at 32–33 °C using a pipette filled with an intracellular solution consisting of: 140 mM K-gluconate, 4 mM KCl, 10 mM HEPES, 0.2 mM EGTA, 4 mM MgATP, 0.3 mM Na2GTP, pH 7.3 with KOH in the presence of bicuculline (20 μM), CGP52422 (10 μM), and APV (50 μM) to block GABAA and B and NMDA receptors, respectively. Methods are described in the Supplementary Information.
Coronal prefrontal cortex (PFC) slices were prepared from male Sprague-Dawley rats (10- to 14-day-old). Animals were sacrificed following acute decapitation, and their brain was quickly removed and placed in an ice-cold modified artificial cerebrospinal fluid (aCSF) of the following composition: 92 mM N-methyl-D-glucamine (NMDG), 2.5 mM KCl, 1.25 mM NaH2PO4, 30 mM NaHCO3, 20 mM HEPES, 25 mM glucose, 2 mM thiourea, 5 mM Na-ascorbate, 3 mM Na-pyruvate, 0.5 mM CaCl2, and 10 mM MgSO4. The pH of the solution was titrated to 7.3-7.4 with concentrated HCl. Coronal slices were cut at a thickness of 300 μm with using a linear slicer PRO7 (Dosaka EM, Kyoto, Japan). Slices were initially recovered for ≤ 15 min at 34°C and then transferred to a holding chamber containing HEPES holding aCSF (92 mM NaCl, 2.5 mM KCl, 1.25 mM NaH2PO4, 30 mM NaHCO3, 20 mM HEPES, 25 mM glucose, 2 mM thiourea, 5 mM Na-ascorbate, 3 mM Na-pyruvate, 2 mM CaCl2 and 2 mM MgSO4) at room temperature for at least 1 h before starting the recording. The slices were then transferred to the recording chamber mounted on a FN1 microscope (Nikon, Tokyo, Japan), in which they were submerged and perfused at a flow rate of 1-2 ml/min with recording aCSF containing the following: 124 mM NaCl, 5 mM KCl, 1.2 mM NaH2PO4, 1.5 mM MgCl2, 2.5 mM CaCl2, 10 mM glucose, 24 mM NaHCO3. All aCSF solutions were continuously bubbled with carbogen (95% O2; 5% CO2). Differential interference contrast (DIC) microscopy (C10639, Hamamatsu, Japan) was used to visualize pyramidal neurons in the PFC. Patch pipettes (5-6 MΩ) were prepared from borosilicate capillary glass using a micropipette puller PC-10 (NARISHIGE, Tokyo, Japan). Current clamp recordings were carried out at 32-33°C using a pipette filled with intracellular solution consisting of: 140 mM K-gluconate, 4 mM KCl, 10 mM HEPES, 0.2 mM EGTA, 4 mM MgATP, 0.3 mM Na2GTP, pH 7.3 with KOH in the presence of bicuculline (20 μM), CGP52422 (10 μM), and APV (50 μM) to block GABAA and B and NMDA receptors, respectively. Signals were recorded using a Multiclamp 700B amplifier (Molecular Devices, LLC, Orleans Drive Sunnyvale, CA), digitized using a Digidata 1440A interface board, filtered between 2 kHz, sampled at 10 kHz, and analyzed with pClamp10 software. Layer V PFC pyramidal neurons were recorded at holding potential of approximately –65 mV with constant current. A hyperpolarizing step (–20 pA) prior to each stimulation was used to monitor any changes in access resistance. Postsynaptic potentials were evoked by constant current single stimulation pulses (100 μs, 10-100 μA) delivered with a 20-s interstimulus interval using monopolar stimulating electrodes positioned in layer I.

naïve rats = assay: Novel object recognition (NOR) test; assay type: in vivo, rat; settings: for NORT (effective doses): summary
Experimental: NOR tests were performed using male Long-Evans rats at 6 weeks old as previously described, with some modifications. On day 1, rats were allowed to habituate to the empty test box (a gray-colored polyvinyl chloride box (40 × 40 × 50 cm)) for 10 min individually. Testing comprised two 3-min trials called the acquisition trial and the retention trial that were separated by 48 h inter-trial intervals (ITIs). On day 2, in the acquisition trial, rats were allowed to explore two identical objects (A1 and A2) for 3 min. On day 4, in the retention trial, rats were again allowed to explore a familiar object (A3) and a novel object (B) for 3 min. The object exploration was defined as rats' licking, sniffing or touching the object with forelimbs while sniffing. TAK-653 or AMPA was orally or intraperitoneally, respectively, 2 h or 0.5 h prior to the acquisition and the retention trials. The NDI was calculated using the following equation: novel object interaction/total interaction × 100 (%).

| Structure (SMILES) | Membrane potentials of recorded neurons (AMPA-R; 0.3 μM) | Polysynaptic EPSP duration and evoked spike number (AMPA-R; 0.3 μM, 5 min, membrane held at −65 mV) | Synaptic EPSP response (AMPA-R) | Cognitive performance in the NOR test (naïve rats; 0.3 to 3 mg/kg, i.p.) | NORT (effective doses) (naïve rats) | Membrane potentials of recorded neurons (AMPA-R) | Spike number and EPSP duration after switch from LY451646 (30 μM) (AMPA-R) | Suprathreshold response (AMPA-R; 10 μM for 10 min) | Spike number and EPSP duration after switch from LY451646 (30 μM) (AMPA-R; listed as TAK653) | Suprathreshold polysynaptic EPSPs (evoked spikes, EPSP duration) (AMPA-R; 0.3 to 30 μM, 10 min bath application) | Novelty discrimination index (NDI) (naïve rats; 0.03, 0.1 and 0.3 mg/kg, p.o., 2 h prior to trials) | Dose improving visual learning and memory in NOR test (naïve rats; p.o., rats) |
| --- | --- | --- | --- | --- | --- | --- | --- | --- | --- | --- | --- | --- |
| Cc1onc(O)c1CC(N)C(=O)O (stereo not drawn) [AMPA, alpha-amino-3-hydroxy-5-methyl-4-isoxazole-propionic acid] | increased | reduced; also recorded: diminished the suprathreshold response | ─ | did not improve | No effect |  |  |  |  |  |  |  |
| CC1=CN2CCS(=O)(=O)N=C2C(c2ccc(OC3CCCCC3)cc2)=N1 [TAK-653, 9-[4-(Cyclohexyloxy)phenyl]-7-methyl-3,4-dihydropyrazino[2,1-c][1,2,4]thiadiazine 2,2-dioxide] |  |  | ++ |  | Effective (0.03, 0.1, 0.3) | did not increase | a clear increase | enhanced the suprathreshold response | further augmentation of spike number | enhanced | significantly improved | ≥ 0.03 mg/kg |
